In BindingDB's records for doi:10.1016/j.bmcl.2016.06.045 (China Pharmaceutical University, 2016) one finds IC50 data, which are given here for 6 compounds.

As usually defined, the IC50 is the concentration at which inhibition is half-maximal.

The nature of the assay: Inhibition of PARP1 in human A549 cells assessed as potentiation of TMZ-mediated cytotoxicity by measuring TMZ IC50 for growth inhibition at 0.5 uM by SRB assay (Rvb TMZ IC50 = 295 uM).

For `NC(=O)c1c(F)ccc2[nH]c(-c3ccc(N4CCNCC4)cc3)nc12`, the IC50 is 188 µM.

Turning to `CN1CCC[C@@]1(C)c1nc2c(C(N)=O)c(F)ccc2[nH]1`, the 50% inhibitory concentration (IC50) was 310 µM. Turning to `NC(=O)c1c(F)ccc2[nH]c(-c3ccc(N4CCOCC4)cc3)nc12`, the concentration for half-maximal inhibition (IC50) worked out at 130 µM.

As to `CCCN1CCC(c2nc3c(C(N)=O)c(F)ccc3[nH]2)CC1`, the IC50 was 152 µM. `C[C@]1(c2nc3c(C(N)=O)c(F)ccc3[nH]2)CCCN1`: the IC50 came to 338 µM. For `NC(=O)c1c(F)ccc2[nH]c(C3CCNCC3)nc12`, the IC50 is 354 µM.
